These results are taken from patent US20060094771A1, “Carvedilol pharmasolve solvate” (priority 2002, published 2006).

Molecules are shown by their SMILES.

The data set in a line: Solubility of carvedilol in Pharmasolve. The data set is classed as physicochemical. The conditions noted are these: solvent Pharmasolve (N-methyl-2-pyrrolidone).

As to `COc1ccccc1OCCNCC(O)COc1cccc2[nH]c3ccccc3c12` (racemic) [carvedilol], the “solubility of carvedilol in Pharmasolve” value was 1.6 gram of drug per gram of pharmasolve.
